Reference: patent US5854252A, “Dihalotriazolopyrimidine derivatives” (Shell Internationale Research Maatschappij B.V., priority 1993, dated 1998)
In brackets after ≈: the same amount, converted by molar mass.

Experiments:
Botrytis cinerea [1] = assay: MIC by serial dilution, Example 55, Botrytis cinerea; assay type: cell-based; conditions: microtitre plates, 20° C., 6-8 days
Experimental: (§1) The MIC (Minimum Inhibition Concentration)-values were determined by serial dilution tests using 48-well microtitre plates. The dilution of the test compounds in the nutrient solution and the distribution to the wells were carried out by a TECAN RSP 5000 robotic sample processor.
(§2) For preparation of the nutrient solution, V8 juice (Trade Mark) was neutralised with calcium carbonate and centrifuged. The supernatant was diluted with distilled water (1:5) to the final concentration.
(§3) The fungi (Alternaria solani, Botrytis cinerea, Pseudocercosporella herpotrichoides, Micronectriella nivalis, Gaeumannomyces graminis) were added into the wells as a droplet of spore suspension. The microtitre plates were then incubated at 20° C. for 6-8 days. The MIC-value, which was defined to be the lowest concentration in the dilution series without mycelial growth, was determined by visual inspection of the plates.

Puccinia arachidis = assay: Field pot test with Puccinia arachidis on peanuts; assay type: in vivo; conditions: topical, 456 h, 500 μg/ml spray, 1000 l/ha, 19 days after treatment, Abbott formula, read-out: % efficacy Puccinia arachidis
Experimental: 15 seeds of peanuts were sown in pots filled with a soil substrate. When the plants have developed 4 true leaves the fungicides and the test compounds were applied using a hand sprayer. The test compounds were applied at a concentration of 500 μg/ml in a […] containing 10% acetone and 0.05% Triton X 155 in water. The total amount of […] corresponded to 1000 l/ha. Six replicates per treatment were used. 2 Days after treatment the pots were exposed to peanut plants in the field on which the fungus, Puccinia arachidis, had formed sporulating pustules on the leaves. The assessment was carried out 19 days after treatment by estimating the percentage of infected leaf area. The % efficacy was calculated using the Abbott formula.

Cercospora arachidicola = assay: Field pot test with Cercospora arachidicola on peanuts; assay type: in vivo; conditions: Mycosphaerella arachidis, topical, 360 h, 500 μg/ml spray, 1000 l/ha, 15 days after treatment, Abbott formula, read-out: % efficacy Cercospora arachidicola
Experimental: 15 Seeds of peanuts were sown in pots filled with a soil substrate. When the plants have developed 4 true leaves (approx. 12-14 days after seeding) the fungicides and the test compounds were applied using a hand sprayer. The test compounds were applied at a concentration of 500 μg/ml in a […] containing 10% acetone and 0.05% Triton X 155 in water. The total amount of […] corresponded to 1000 l/ha. Six replicates (pots) per treatment were used. 2 days after treatment the pots were exposed to peanut plants in the field on which the fungus, Cercospora arachidicola, had formed sporulating lesions. The assessment was carried out 15 days after treatment by estimating the percentage of infected leaf area. The % efficacy was calculated using the Abbott formula.

[2] = tested on: Pseudocercosporella herpotrichoides; assay: Activity against wheat eyespot in-vitro (PHI), Example 53(j); assay type: cell-based; conditions: 50 ppm, 12 days at 20° C.
Experimental: This test measures the in vitro activity of compounds against the fungus causing wheat eyespot. The test compound is dissolved or suspended in acetone and is added into 4 ml aliquots of half strength Potato Dextrose Broth dispensed in 25-compartment petri dishes to give a final concentration of 50 ppm compound and 2.5% acetone. Each compartment is inoculated with a 6 mm diameter plug of agar/mycelium taken from a 14 day old culture of P. herpotrichoides. Plates are incubated at 20° C. for 12 days until the assessment of mycelial growth. The extent of disease control in all the above tests is expressed as a rating compared with either an untreated control or a diluent-sprayed-control, according to the criteria: […]

Leptosphaeria nodorum = assay: Activity against wheat leafspot (LN), Example 53(f); assay type: in vivo; conditions: therapeutic foliar spray, 1000 ppm
Experimental: The test is a direct therapeutic one, using a foliar spray. Leaves of wheat plants (cv Norman), at the single leaf stage, are inoculated by spraying with an aqueous suspension containing 1×10^6 spores/ml. The inoculated plants are kept for 24 hours in a high humidity compartment prior to treatment. The plants are sprayed with a solution of the test compound at a dosage of 1000 ppm using an automated sprayline as described under (a). After drying, the plants are kept for 6-8 days at 22° C. and moderate humidity, followed by assessment. Assessment is based on the density of lesions per leaf compared with that on leaves of control plants. The extent of disease control in all the above tests is expressed as a rating compared with either an untreated control or a diluent-sprayed-control, according to the criteria: […]

[3] = tested on: Pseudocercosporella herpotrichoides; assay: MIC by serial dilution, Example 55, Pseudocercosporella herpotrichoides; assay type: cell-based; conditions: Oculimacula yallundae; microtitre plates, 20° C., 6-8 days
Experimental: as §1, §2, §3

Micronectriella nivalis = assay: MIC by serial dilution, Example 55, Micronectriella nivalis; assay type: cell-based; conditions: microtitre plates, 20° C., 6-8 days
Experimental: as §1, §2, §3

Gaeumannomyces graminis = assay: MIC by serial dilution, Example 55, Gaeumannomyces graminis; assay type: cell-based; conditions: microtitre plates, 20° C., 6-8 days
Experimental: as §1, §2, §3

Alternaria solani [4] = assay: MIC in the serial dilution test, Example 56, Alternaria solani; assay type: cell-based; conditions: microtiter serial dilution, 6-12 days
Experimental: (§4) The serial dilution test was carried out using Microtiter test with 24 or 48 wells per plate. The test compounds were used a 1000 μg/ml aqueous stock suspension containing 20% acetone which was then sterile filtered in a 0.2μ filter. The dilution of the sterile fungicide suspension with the nutrient solution and the subsequent pipetting into the different wells was carried out using a TECAN RSP 5000 Robotic Sample Processor. The concentrations tested ranged from 100 μg/ml down to 0.05 μg/ml. 12 Dilution steps were made. The nutrient solution was chosen according to the nutrient requirements of the pathogen. The inoculum was added as a droplet (50 μl) of a spore suspension (5×10^8 /ml) into the wells. After 6-12 days incubation at suitable temperatures, the MIC value was determined by visual estimation. The lowest concentration in the dilution row without mycelial growth was defined as the MIC value.

Botrytis cinerea [5] = assay: MIC in the serial dilution test, Example 56, Botrytis cinerea; assay type: cell-based; conditions: microtiter serial dilution, 6-12 days
Experimental: as §4

Rhizoctonia solani = assay: MIC in the serial dilution test, Example 56, Rhizoctonia solani; assay type: cell-based; conditions: microtiter serial dilution, 6-12 days
Experimental: as §4

Plasmopara viticola = assay: Direct protectant activity against vine downy mildew (PVP), Example 53(c); assay type: in vivo; conditions: protectant foliar spray, 1000 ppm
Experimental: The test is a direct protectant one using a foliar spray. The lower surface of leaves of whole vine plants (cv Cabernet Sauvignon) are sprayed with the test compound at a dosage of 1000 ppm using an automated sprayline as described under (a), and after a subsequent period of 24 hours under normal glasshouse conditions the lower surfaces of the leaves are inoculated by spraying with an aqueous suspension containing 2.5×10^4 zoosporangia/ml. The inoculated plants are kept for 24 hours in a high humidity cabinet, 5 days under normal glasshouse conditions and then returned for a further 24 hours to high humidity. Assessment is based on the percentage of leaf area covered by sporulation compared with that on control leaves. The extent of disease control in all the above tests is expressed as a rating compared with either an untreated control or a diluent-sprayed-control, according to the criteria: […]

Alternaria solani [6] = assay: MIC by serial dilution, Example 55, Alternaria solani; assay type: cell-based; conditions: microtitre plates, 20° C., 6-8 days
Experimental: as §1, §2, §3

Structure (SMILES)	MIC [3] [µg/mL]	MIC (Micronectriella nivalis) [µg/mL]	MIC (Gaeumannomyces graminis) [µg/mL]	Fungicidal Activity PHI (disease control rating) [2]	also measured
O=S(=O)(Cl)c1ccccc1-c1c(Cl)nc2ncnn2c1Cl [Example 6]	–	–	–	–	MIC (Botrytis cinerea [1]): > 100 µg/mL
Clc1nc2ncnn2c(Cl)c1-c1ccc(Oc2ccccc2)cc1 [Example 12]	–	–	–	–	pest or weed control at 500 µg/mL (Puccinia arachidis): 33%; pest or weed control at 500 µg/mL (Cercospora arachidicola): 67%
Clc1nc2ncnn2c(Cl)c1-c1ccc2ccccc2c1 [Example 10]	–	–	–	2 (greater than 80% disease control)	–
CCOc1cccc(-c2c(Cl)nc3ncnn3c2Cl)c1OCC [Example 24]	–	–	–	2 (greater than 80% disease control)	Fungicidal Activity LN (disease control rating) (Leptosphaeria nodorum): 1 (about 50-80% disease control)
COc1ccc(-c2c(Cl)nc3ncnn3c2Cl)cc1 [Example 38]	–	–	–	–	pest or weed control at 500 µg/mL (Puccinia arachidis): 42%; pest or weed control at 500 µg/mL (Cercospora arachidicola): 42%
Fc1ccc(-c2c(Cl)nc3ncnn3c2Cl)cc1 [Example 11]	3.13 (≈ 11.1 µM)	0.39 (≈ 1.38 µM)	0.2 (≈ 0.706 µM)	2 (greater than 80% disease control)	pest or weed control at 500 µg/mL (Puccinia arachidis): 25%; pest or weed control at 500 µg/mL (Cercospora arachidicola): 33%
CCOc1c(Cl)nc2ncnn2c1Cl [Example 50]	–	–	–	–	MIC (Alternaria solani [4]): 12.5 µg/mL (≈ 53.6 µM); MIC (Botrytis cinerea [5]): 25 µg/mL (≈ 107 µM); MIC (Rhizoctonia solani): 100 µg/mL (≈ 429 µM)
COc1cccc(-c2c(Cl)nc3ncnn3c2Cl)c1 [Example 4]	–	–	–	2 (greater than 80% disease control)	Fungicidal Activity PVP (disease control rating) (Plasmopara viticola): 1 (about 50-80% disease control)
Clc1nc2ncnn2c(Cl)c1-c1ccc(OCc2ccccc2)cc1 [Example 15]	–	–	–	–	Fungicidal Activity LN (disease control rating) (Leptosphaeria nodorum): 1 (about 50-80% disease control)
Clc1nc2ncnn2c(Cl)c1-c1cccc2ccccc12 [Example 23]	–	–	–	1 (about 50-80% disease control)	–
Fc1ccccc1-c1c(Cl)nc2ncnn2c1Cl [Example 16]	–	–	–	2 (greater than 80% disease control)	pest or weed control at 500 µg/mL (Puccinia arachidis): 42%; pest or weed control at 500 µg/mL (Cercospora arachidicola): 50%
Fc1cccc(Cl)c1-c1c(Br)nc2ncnn2c1Br [Example 41]	–	–	–	–	MIC (Alternaria solani [6]): 50 µg/mL (≈ 123 µM); MIC (Botrytis cinerea [1]): 25 µg/mL (≈ 61.5 µM)
Fc1cccc(-c2c(Br)nc3ncnn3c2Br)c1 [Example 43]	–	–	–	–	MIC (Alternaria solani [6]): > 100 µg/mL; MIC (Botrytis cinerea [1]): > 100 µg/mL
Cc1cccc(Oc2c(Cl)nc3ncnn3c2Cl)c1 [Example 49]	–	–	–	–	MIC (Alternaria solani [4]): 25 µg/mL (≈ 84.7 µM); MIC (Botrytis cinerea [5]): 6.25 µg/mL (≈ 21.2 µM); MIC (Rhizoctonia solani): > 100 µg/mL
CC(C)c1c(Cl)nc2ncnn2c1Cl [Example 51]	–	–	–	–	MIC (Alternaria solani [4]): 12.5 µg/mL (≈ 54.1 µM); MIC (Botrytis cinerea [5]): 12.5 µg/mL (≈ 54.1 µM); MIC (Rhizoctonia solani): 25 µg/mL (≈ 108 µM)
Clc1nc2ncnn2c(Cl)c1-c1ccccc1Br [Example 18]	–	–	–	2 (greater than 80% disease control)	–
FC(F)(F)c1ccccc1-c1c(Br)nc2ncnn2c1Br [Example 44]	–	–	–	–	MIC (Alternaria solani [6]): > 100 µg/mL; MIC (Botrytis cinerea [1]): > 100 µg/mL
Cc1cccc(C)c1Oc1c(Cl)nc2ncnn2c1Cl [Example 48]	–	–	–	–	MIC (Alternaria solani [4]): 25 µg/mL (≈ 80.9 µM); MIC (Botrytis cinerea [5]): > 100 µg/mL; MIC (Rhizoctonia solani): > 100 µg/mL
COc1ccccc1-c1c(Cl)nc2ncnn2c1Cl [Example 5]	–	–	–	2 (greater than 80% disease control)	Fungicidal Activity PVP (disease control rating) (Plasmopara viticola): 2 (greater than 80% disease control)
FC(F)(F)c1ccc(-c2c(Br)nc3ncnn3c2Br)cc1 [Example 42]	–	–	–	–	MIC (Alternaria solani [6]): > 100 µg/mL; MIC (Botrytis cinerea [1]): > 100 µg/mL
FC(F)(F)c1cccc(-c2c(Cl)nc3ncnn3c2Cl)c1 [Example 7]	–	–	–	2 (greater than 80% disease control)	pest or weed control at 500 µg/mL (Puccinia arachidis): 25%; pest or weed control at 500 µg/mL (Cercospora arachidicola): 58%
Clc1ccc(-c2c(Cl)nc3ncnn3c2Cl)cc1Cl [Example 25]	–	–	–	–	Fungicidal Activity LN (disease control rating) (Leptosphaeria nodorum): 1 (about 50-80% disease control); pest or weed control at 500 µg/mL (Puccinia arachidis): 42%; pest or weed control at 500 µg/mL (Cercospora arachidicola): 25%
COc1cccc(-c2c(Cl)nc3ncnn3c2Cl)c1OC [Example 21]	–	–	–	2 (greater than 80% disease control)	–

Further lines, with some results ahead:

MIC [3] [µg/mL]	MIC (Micronectriella nivalis) [µg/mL]	MIC (Gaeumannomyces graminis) [µg/mL]	Structure (SMILES)	Fungicidal Activity PHI (disease control rating) [2]	also measured
12.5 (≈ 42.6 µM)	3.13 (≈ 10.7 µM)	0.78 (≈ 2.66 µM)	Cc1ccc(-c2c(Cl)nc3ncnn3c2Cl)cc1C [Example 31]	–	–
25 (≈ 88.3 µM)	12.5 (≈ 44.2 µM)	0.78 (≈ 2.76 µM)	Fc1cccc(-c2c(Cl)nc3ncnn3c2Cl)c1 [Example 17]	2 (greater than 80% disease control)	–
6.25 (≈ 20.2 µM)	0.78 (≈ 2.52 µM)	0.2 (≈ 0.647 µM)	CCOc1ccc(-c2c(Cl)nc3ncnn3c2Cl)cc1 [Example 3]	–	–
25 (≈ 83.5 µM)	1.56 (≈ 5.21 µM)	3.13 (≈ 10.4 µM)	Clc1ccccc1-c1c(Cl)nc2ncnn2c1Cl [Example 1, 5,7-dichloro-6-(2-chlorophenyl)-1,2,4-triazolo-[1,5a]pyrimidine]	2 (greater than 80% disease control)	–
12.5 (≈ 36.3 µM)	6.25 (≈ 18.2 µM)	0.1 (≈ 0.291 µM)	Clc1nc2ncnn2c(Cl)c1-c1ccc(Br)cc1 [Example 19]	2 (greater than 80% disease control)	–
3.13 (≈ 9.74 µM)	0.39 (≈ 1.21 µM)	0.78 (≈ 2.43 µM)	CC(C)(C)c1ccc(-c2c(Cl)nc3ncnn3c2Cl)cc1 [Example 36]	–	–
> 100	6.25 (≈ 18.3 µM)	0.39 (≈ 1.14 µM)	Clc1nc2ncnn2c(Cl)c1-c1ccc(-c2ccccc2)cc1 [Example 13]	2 (greater than 80% disease control)	–
25 (≈ 76.9 µM)	6.25 (≈ 19.2 µM)	0.78 (≈ 2.4 µM)	COc1ccc(-c2c(Cl)nc3ncnn3c2Cl)cc1OC [Example 14]	2 (greater than 80% disease control)	–
12.5 (≈ 35.8 µM)	0.78 (≈ 2.23 µM)	0.1 (≈ 0.286 µM)	FC(F)(F)Oc1ccc(-c2c(Cl)nc3ncnn3c2Cl)cc1 [Example 9]	2 (greater than 80% disease control)	pest or weed control at 500 µg/mL (Puccinia arachidis): 25%; pest or weed control at 500 µg/mL (Cercospora arachidicola): 50%
